Consider one molecule from BindingDB's records for doi:10.1016/j.bmcl.2009.05.085 (Targacept, 2009).

Some results are limits rather than exact numbers.

The target of the experiment is Neuronal acetylcholine receptor subunit alpha-7 (Mus musculus, UniProt P49582). The experiment in a line: Displacement of [125I]alpha-bungarotoxin from alpha7 nAChR in C57BL/6J mouse hippocampal membrane. In general terms: In a radioligand displacement assay an active substance lowers the binding of a labelled ligand.
Chain of Neuronal acetylcholine receptor subunit alpha-7 (P49582 whole entry): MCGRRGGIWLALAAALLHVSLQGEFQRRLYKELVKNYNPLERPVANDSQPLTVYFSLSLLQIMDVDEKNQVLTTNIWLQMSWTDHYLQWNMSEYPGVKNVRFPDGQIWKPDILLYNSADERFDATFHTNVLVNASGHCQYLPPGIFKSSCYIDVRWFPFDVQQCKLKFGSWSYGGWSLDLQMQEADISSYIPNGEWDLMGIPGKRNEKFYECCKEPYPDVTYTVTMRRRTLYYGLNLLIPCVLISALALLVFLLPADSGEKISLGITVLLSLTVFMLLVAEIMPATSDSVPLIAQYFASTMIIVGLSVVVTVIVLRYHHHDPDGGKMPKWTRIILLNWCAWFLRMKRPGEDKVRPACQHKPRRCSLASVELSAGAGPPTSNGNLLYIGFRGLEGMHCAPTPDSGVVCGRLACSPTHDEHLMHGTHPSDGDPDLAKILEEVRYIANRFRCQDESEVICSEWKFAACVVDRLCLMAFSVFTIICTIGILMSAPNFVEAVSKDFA

In general, Ki refers to the dissociation constant of the complex between target and ligand, obtained from inhibition or displacement.

Take `O=C(O)[C@@H](O)[C@H](O)[C@H](O)[C@@H](O)C(=O)O`: the Ki was over 10 µM.
